Assay results from patent US20120324604A1, “PESTICIDAL MIXTURES CONTAINING ISOXAZOLINE DERIVATIVES AND A FUNGICIDE” (priority 2010, published 2012).
Several values for one entry are separate records, joined by “and”; a condition that tells them apart may be missing. Equal values may be shown once.

Tests used:
Assay type in all cases: cell-based
[1] = system: Glomerella lagenarium (syn. Colletotrichum lagenarium); assay: Glomerella lagenarium (Anthracnose of Cucurbits) growth inhibition, microtiter plate, photometric; conditions: alone
Experimental: Glomerella lagenarium (syn. Colletotrichum lagenarium), Anthracnose of Cucurbits:
(§1) Conidia of the fungus from cryogenic storage were directly mixed into nutrient broth (potato dextrose broth). After placing a (DMSO) solution of the test compounds into a microtiter plate (96-well format) the nutrient broth containing the fungal spores was added.

[2] = system: Rhizoctonia solani; assay: Rhizoctonia solani (Foot Rot, Damping-Off) growth inhibition, microtiter plate, photometric; conditions: applied alone
Experimental: Rhizoctonia solani (Foot Rot, Damping-Off):
Mycelial fragments of the fungus from cryogenic storage were directly mixed into nutrient broth (potato dextrose broth). After placing a (DMSO) solution of the test compounds into a microtiter plate (96-well format) the nutrient broth containing the fungal spores was added.

[3] = system: Gaeumannomyces graminis; assay: Gaeumannomyces graminis growth inhibition, microtiter plate, photometric
Experimental: Mycelial fragments of the fungus from cryogenic storage were directly mixed into nutrient broth (potato dextrose broth). After placing a (DMSO) solution of the test compounds into a microliter plate (96-well format) the nutrient broth containing the fungal spores was added.

[4] = system: Septoria tritici; assay: Septoria tritici (Leaf Blotch) growth inhibition, microtiter plate, photometric
Experimental: Septoria tritici (Leaf Blotch):
as §1

[5] = system: Mycosphaerella arachidis (syn. Cercospora arachidicola); assay: Mycosphaerella arachidis (Brown Leaf Spot of Groundnut) growth inhibition, microtiter plate, photometric; conditions: alone
Experimental: Mycosphaerella arachidis (syn. Cercospora arachidicola), Brown Leaf Spot of Groundnut (Peanut):
as §1

[6] = system: Fusarium culmorum; assay: Fusarium culmorum (Root Rot) growth inhibition, microtiter plate, photometric; conditions: alone, 2 PPM AI
Experimental: Fusarium culmorum (Root Rot):
as §1

## CO/C=C(\C(=O)OC)c1ccccc1Oc1cc(Oc2ccccc2C#N)ncn1 [Azoystrobin]
[1]; 0.0078125 ppm AI
  AVERAGE DEAD IN %: 0%
[1]; 0.015625 ppm AI
  AVERAGE DEAD IN %: 50%
[1]; 0.03125 ppm AI
  AVERAGE DEAD IN %: 50%
[1]; 0.0625 ppm AI
  AVERAGE DEAD IN %: 70%

## Cn1cc(C(=O)Nc2cccc3c2C2CCC3C2=C(Cl)Cl)c(C(F)F)n1 (stereo not drawn) [COMPOUND III]
[2]; 0.03125 ppm AI
  AVERAGE DEAD IN %: 90%
[3]; single compound at 0.00390625 ppm AI
  AVERAGE DEAD IN %: 0%
[3]; single compound at 0.0078125 ppm AI
  AVERAGE DEAD IN %: 0%
[3]; single compound at 0.0625 ppm AI
  AVERAGE DEAD IN %: 70% and 90%
[3]; single compound at 0.125 ppm AI
  AVERAGE DEAD IN %: 90%
[3]; single compound at 0.25 ppm AI
  AVERAGE DEAD IN %: 100%
[3]; single compound at 0.5 ppm AI
  AVERAGE DEAD IN %: 100%
[3]; single compound at 1 ppm AI
  AVERAGE DEAD IN %: 100%
[3]; single compound at 2 ppm AI
  AVERAGE DEAD IN %: 100%
[1]; 0.0078125 ppm AI
  AVERAGE DEAD IN %: 0%
[1]; 0.015625 ppm AI
  AVERAGE DEAD IN %: 0%
[1]; 0.125 ppm AI
  AVERAGE DEAD IN %: 50%
[4]; 0.125 ppm AI, alone
  AVERAGE DEAD IN %: 20%
[4]; 0.25 ppm AI, alone
  AVERAGE DEAD IN %: 70% and 50%
[4]; 0.5 ppm AI, alone
  AVERAGE DEAD IN %: 90%
[4]; COMPOUND III alone, 0.0078125 ppm AI
  AVERAGE DEAD IN % COMPOUND III: 0%
[4]; COMPOUND III alone, 0.015625 ppm AI
  AVERAGE DEAD IN % COMPOUND III: 0%
[4]; COMPOUND III alone, 0.03125 ppm AI
  AVERAGE DEAD IN % COMPOUND III: 0%
[4]; COMPOUND III alone, 0.0625 ppm AI
  AVERAGE DEAD IN % COMPOUND III: 0%
[4]; COMPOUND III alone, 0.125 ppm AI
  AVERAGE DEAD IN % COMPOUND III: 20%
[4]; COMPOUND III alone, 0.25 ppm AI
  AVERAGE DEAD IN % COMPOUND III: 50% and 70%
[4]; COMPOUND III alone, 0.5 ppm AI
  AVERAGE DEAD IN % COMPOUND III: 70%
[4]; COMPOUND III alone, 1 ppm AI
  AVERAGE DEAD IN % COMPOUND III: 90%
[5]; 0.0078125 ppm AI
  AVERAGE DEAD IN %: 0%
[5]; 0.015625 ppm AI
  AVERAGE DEAD IN %: 0%
[5]; 0.03125 ppm AI
  AVERAGE DEAD IN %: 20%
[5]; 0.0625 ppm AI
  AVERAGE DEAD IN %: 90%
[5]; 0.03125 PPM AI
  AVERAGE DEAD IN %: 70% and 50%
[5]; 0.0625 PPM AI
  AVERAGE DEAD IN %: 100% and 70% and 90%
[5]; 0.125 PPM AI
  AVERAGE DEAD IN %: 90%

## CC(C1CC1)C(O)(Cn1cncn1)c1ccc(Cl)cc1 (stereo not drawn) [Cyproconazole]
[2]; 0.25 ppm AI
  AVERAGE DEAD IN %: 20%
[2]; 2 ppm AI
  AVERAGE DEAD IN %: 70% and 100%
[3]; single compound at 0.25 ppm AI
  AVERAGE DEAD IN %: 20%
[3]; single compound at 0.5 ppm AI
  AVERAGE DEAD IN %: 50% and 90%
[3]; single compound at 1 ppm AI
  AVERAGE DEAD IN %: 70%
[3]; single compound at 2 ppm AI
  AVERAGE DEAD IN %: 90%
[4]; 0.25 ppm AI, alone
  AVERAGE DEAD IN %: 20%
[4]; 0.5 ppm AI, alone
  AVERAGE DEAD IN %: 50%
[4]; 1 ppm AI, alone
  AVERAGE DEAD IN %: 70%
[4]; 2 ppm AI, alone
  AVERAGE DEAD IN %: 90%
[4]; Cyproconazole alone, 0.5 ppm AI
  AVERAGE DEAD IN % Cyproconazole: 50%
[4]; Cyproconazole alone, 1 ppm AI
  AVERAGE DEAD IN % Cyproconazole: 70%
[4]; Cyproconazole alone, 2 ppm AI
  AVERAGE DEAD IN % Cyproconazole: 90%
[4]; alone, 0.25 ppm AI
  AVERAGE DEAD IN %: 0%
[4]; alone, 0.5 ppm AI
  AVERAGE DEAD IN %: 50%
[4]; alone, 1 ppm AI
  AVERAGE DEAD IN %: 70%
[4]; alone, 2 ppm AI
  AVERAGE DEAD IN %: 70%
[5]; 0.125 ppm AI
  AVERAGE DEAD IN %: 70%
[5]; 0.0625 PPM AI
  AVERAGE DEAD IN %: 0%
[5]; 0.125 PPM AI
  AVERAGE DEAD IN %: 20%
[5]; 0.25 PPM AI
  AVERAGE DEAD IN %: 70% and 100%
[5]; 0.5 PPM AI
  AVERAGE DEAD IN %: 100%
[6]
  AVERAGE DEAD IN %: 20%
